Experimental data published in patent US10144706B2 (BRISTOL-MYERS SQUIBB COMPANY, priority 2016, dated 2018).

The compounds below were run against T1, PD-1/PD-L1 interaction (PD-1-Ig / PD-L1-His) (Homo sapiens, UniProt Q9NZQ7) (assay: PD-1/PD-L1 Homogenous Time-Resolved Fluorescence (HTRF) binding assay). Settings: IC50 range class; PD-L1-His 10 nM, PD-1-Ig 20 nM; read-out: Range or IC50.
T1 construct: hPDL1(18-239)-TVMV-His; TVMV protease site linker (C); made in house; host or cells: HEK293T
Source text: The ability of the compounds of formula (I) to bind to PD-L1 was investigated using a PD-1/PD-L1 Homogenous Time-Resolved Fluorescence (HTRF) binding assay.
Homogenous Time-Resolved Fluorescence (HTRF) Binding Assay.
The interaction of PD-1 and PD-L1 can be assessed using soluble, purified preparations of the extracellular domains of the two proteins. The PD-1 and PD-L1 protein extracellular domains were expressed as fusion proteins with detection tags, for PD-1, the tag was the Fc portion of Immunoglobulin (PD-1-Ig) and for PD-L1 it was the 6 histidine motif (PD-L1-His). All binding studies were performed in an HTRF assay buffer consisting of dPBS supplemented with 0.1% […] bovine serum albumin and 0.05% (v/v) Tween-20. For the h/PD-L1-His binding assay, inhibitors were pre-incubated with PD-L1-His (10 nM final) for 15 m in 4 μl of assay buffer, followed by addition of PD-1-Ig (20 nM final) in 1 μl of assay buffer and further incubation for 15 m. HTRF detection was achieved using europium crypate-labeled anti-Ig (1 nM final) and allophycocyanin (APC) labeled anti-His (20 nM final). Antibodies were diluted in HTRF detection buffer and 5 μl was dispensed on top of the binding reaction. […] Additional binding assays were established between the human proteins PD-1-Ig/PD-L2-His (20 & 5 nM, respectively) and CD80-His/PD-L1-Ig (100 & 10 nM, respectively). […]

T1 sequence (Q9NZQ7 with tags, fused parts or gaps): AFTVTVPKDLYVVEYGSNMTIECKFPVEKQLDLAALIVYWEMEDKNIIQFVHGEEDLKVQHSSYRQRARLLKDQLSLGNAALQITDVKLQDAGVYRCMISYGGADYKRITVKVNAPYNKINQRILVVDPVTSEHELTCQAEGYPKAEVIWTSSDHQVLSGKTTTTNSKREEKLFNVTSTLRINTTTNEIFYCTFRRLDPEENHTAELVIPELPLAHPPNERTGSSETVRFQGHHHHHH

Structure (SMILES) | IC50
Cc1c(OCCCN(C)C2CC(O)C2)cccc1-c1cccc(OCCCN(C)C2CC(O)C2)c1C (centres unmarked) [Example 2090, 3,3′-((((2,2′-dimethyl-[1,1′-biphenyl]-3,3′-diyl)bis(oxy))bis(propane-3,1-diyl))bis(methylazanediyl))bis(cyclobutan-1-ol)] | 20.1 to 90 nM
CC(=O)NC1CCN(CCCOc2cccc(-c3cccc(OCCCN4CC[C@@H](O)C4)c3C)c2C)C1 (stereo partly drawn) [Example 2107, N-(1-(3-((3′-(3-((R)-3-hydroxypyrrolidin-1-yl)propoxy)-2,2′-dimethyl-[1,1′-biphenyl]-3-yl)oxy)propyl)pyrrolidin-3-yl)acetamide] | 20.1 to 90 nM
Cc1c(OCCCN2CC[C@H](O)[C@@H](O)C2)cccc1-c1cccc(OCCCN2CC[C@H](O)[C@@H](O)C2)c1C [Example 2084, (3S,3′S,4S,4′S)-1,1′-(((2,2′-dimethyl-[1,1′-biphenyl]-3,3′-diyl)bis(oxy))bis(propane-3,1-diyl))bis(piperidine-3,4-diol)] | 20.1 to 90 nM
Cc1c(COc2cc(OCc3cncc(C#N)c3)c(CN[C@H](C(=O)O)c3ccccc3)cc2Cl)cccc1-c1cccc(COc2cc(OCc3cncc(C#N)c3)c(CN[C@H](C(=O)O)c3ccccc3)cc2Cl)c1C [Example 40360] | 0.04 to 20 nM
Cc1c(COc2cc(OCC3CC3)c(CNC(CCO)C(=O)O)cc2Cl)cccc1-c1cccc(COc2cc(OCC3CC3)c(CNC(CCO)C(=O)O)cc2Cl)c1C (centres unmarked) [Example 40180] | 0.04 to 20 nM
Cc1c(COc2cc(OCc3cncc(C#N)c3)c(CN(CCC(C)C)C(CCO)C(=O)O)cc2Cl)cccc1-c1cccc(COc2cc(OCc3cncc(C#N)c3)c(CN(CCC(C)C)C(CCO)C(=O)O)cc2Cl)c1C (centres unmarked) [Example 41010] | 0.04 to 20 nM
Cc1c(COc2cc(OCc3cncc(C(N)=O)c3)c(CN[C@@H](CCO)C(=O)O)cc2Cl)cccc1-c1cccc(COc2cc(OCc3cncc(C(N)=O)c3)c(CN[C@@H](CCO)C(=O)O)cc2Cl)c1C [Example 40870] | 0.04 to 20 nM
Cc1c(OCCCNCc2ccncc2)cccc1-c1cccc(OCCCN2CC[C@@H](O)C2)c1C [Example 2006, (R)-1-(3-((2,2′-dimethyl-3′-(3-((pyridin-4-ylmethyl)amino)propoxy)-[1,1′-biphenyl]-3-yl)oxy)propyl)pyrrolidin-3-ol] | 90.1 to 1000 nM
Cc1c(COc2cc(OCc3cncc(C#N)c3)c(CO)cc2Cl)cccc1-c1cccc(COc2cc(OCc3cncc(C#N)c3)c(CN(CC(C)C)C(CCO)C(=O)O)cc2Cl)c1C (centres unmarked) [Example 50170] | 0.04 to 20 nM
COc1cc(OCc2cccc(-c3cccc(COc4cc(OC)c(CN(C)Cc5cncnc5)cc4Cl)c3C)c2C)c(Cl)cc1CN(C)Cc1cncnc1 [Example 5038, 1,1′-((((2,2′-dimethyl-[1,1′-biphenyl]-3,3′-diyl)bis(methylene))bis(oxy))bis(5-chloro-2-methoxy-4,1-phenylene))bis(N-methyl-N-(pyrimidin-5-ylmethyl)methanamine)] | 90.1 to 1000 nM
Cc1c(COc2cc(OCc3cncc(C#N)c3)c(CN(C[C@H](O)CO)C(CO)CO)cc2Cl)cccc1-c1cccc(COc2cc(OCc3cncc(C#N)c3)c(CN(C[C@H](O)CO)C(CO)CO)cc2Cl)c1C [Example 2131, 5,5′-((((((2,2′-dimethyl-[1,1′-biphenyl]-3,3′-diyl)bis(methylene))bis(oxy))bis(4-chloro-6-(((1,3-dihydroxypropan-2-yl)((S)-2,3-dihydroxypropyl)amino)methyl)-3,1-phenylene))bis(oxy))bis(methylene))dinicotinonitrile] | 0.04 to 20 nM
Cc1c(OCCCNCCC(N)=O)cccc1-c1cccc(OCCCN2CC[C@@H](O)C2)c1C [Example 2038, (R)-3-((3-((3′-(3-(3-hydroxypyrrolidin-1-yl)propoxy)-2,2′-dimethyl-[1,1′-biphenyl]-3-yl)oxy)propyl)amino)propanamide] | 90.1 to 1000 nM
Cc1c(OCCCN2CC[C@@H](O)C2)cccc1-c1ccc(OCCCN2CC[C@H](O)C2)c(OCCCN2CC[C@H](O)C2)c1 [Example 3022, (3S,3′S)-1,1′-(((3′-(3-((R)-3-hydroxypyrrolidin-1-yl)propoxy)-2′-methyl-[1,1′-biphenyl]-3,4-diyl)bis(oxy))bis(propane-3,1-diyl))bis(pyrrolidin-3-ol)] | > 10000 nM
Cc1c(OCCCNCC(O)c2cccnc2)cccc1-c1cccc(OCCCN2CC[C@@H](O)C2)c1C (mixture of isomers) [Example 2040, (3R)-1-(3-((3′-(3-((2-hydroxy-2-(pyridin-3-yl)ethyl)amino)propoxy)-2,2′-dimethyl-[1,1′-biphenyl]-3-yl)oxy)propyl)pyrrolidin-3-ol] | 20.1 to 90 nM
Cc1c(OCCCN(CCc2cccnc2)C[C@H](O)CO)cccc1-c1cccc(OCCCN(CCc2cccnc2)C[C@H](O)CO)c1C [Example 2102, (2S,2′S)-3,3′-((((2,2′-dimethyl-[1,1′-biphenyl]-3,3′-diyl)bis(oxy))bis(propane-3,1-diyl))bis((2-(pyridin-3-yl)ethyl)azanediyl))bis(propane-1,2-diol)] | 20.1 to 90 nM
Cc1c(OCCCNCCN2CCOCC2)cccc1-c1cccc(OCCCN2CC[C@@H](O)C2)c1C [Example 2005, (R)-1-(3-((2,2′-dimethyl-3′-(3-((2-morpholinoethyl)amino)propoxy)-[1,1′-biphenyl]-3-yl)oxy)propyl)pyrrolidin-3-ol] | 20.1 to 90 nM
Cc1c(NC(=O)NCCC(=O)O)cccc1-c1cccc(OCCCN2CC[C@@H](O)C2)c1C [Example 3014, (R)-3-(3-(3′-(3-(3-hydroxypyrrolidin-1-yl)propoxy)-2,2′-dimethyl-[1,1′-biphenyl]-3-yl)ureido)propanoic acid] | > 10000 nM
Cc1c(COc2cc(OCc3cncc(C#N)c3)c(CN3CC(C(=O)O)C(c4ccccc4Cl)C3)cc2Cl)cccc1-c1cccc(COc2cc(OCc3cncc(C#N)c3)c(CN3CC(C(=O)O)C(c4ccccc4Cl)C3)cc2Cl)c1C (centres unmarked) [Example 40520] | 90.1 to 1000 nM
Cc1c(OCCCN(CCO)CCO)cccc1-c1cccc(OCCCN(CCO)CCO)c1C [Example 2077, 2,2′,2″,2′″-((((2,2′-dimethyl-[1,1′-biphenyl]-3,3′-diyl)bis(oxy))bis(propane-3,1-diyl))bis(azanetriyl))tetrakis(ethan-1-ol)] | 20.1 to 90 nM
Cc1c(NC(=O)CCN2CC[C@@H](O)C2)cccc1-c1cccc(OCCCN2CC[C@@H](O)C2)c1C [Example 3013, 3-((R)-3-hydroxypyrrolidin-1-yl)-N-(3′-(3-((R)-3-hydroxypyrrolidin-1-yl)propoxy)-2,2′-dimethyl-[1,1′-biphenyl]-3-yl)propanamide] | 1000 to 10000 nM
Cc1c(OCCCN[C@H](CO)C(C)C)cccc1-c1cccc(OCCCN2CC[C@@H](O)C2)c1C [Example 2058, (R)-1-(3-((3′-(3-(((S)-1-hydroxy-3-methylbutan-2-yl)amino)propoxy)-2,2′-dimethyl-[1,1′-biphenyl]-3-yl)oxy)propyl)pyrrolidin-3-ol] | 90.1 to 1000 nM
N#Cc1cncc(COc2cc(OCc3cccc(-c4cccc(COc5cc(OCc6cncc(C#N)c6)c(C(=O)N6CCS(=O)(=O)CC6)cc5Cl)c4Cl)c3Cl)c(Cl)cc2C(=O)N2CCS(=O)(=O)CC2)c1 [Example 80140] | 0.04 to 20 nM

Same assay, conditions: numeric IC50; PD-L1-His 10 nM, PD-1-Ig 20 nM; read-out: Range or IC50

Structure (SMILES) | IC50
Cc1c(COc2cc(OCc3cncc(C#N)c3)c(CNC/C=C\C(=O)O)cc2Cl)cccc1-c1cccc(COc2cc(OCc3cncc(C#N)c3)c(CNC/C=C\C(=O)O)cc2Cl)c1C [Example 40730] | 22 nM
